Data reported in ChEMBL document CHEMBL3885861, “Open TG-GATES”.

Species on record: Rattus norvegicus
Assay: Open TG-GATES - Regimen: Daily Repeat
Assay type: toxicity, organism-based, Sprague-Dawley
Set-up: regimen Daily Repeat, gender Male, age 6 weeks
Settings: in vivo, po, 1000 mg/kg, […], route gavage, dose level High; for KIDNEY_L / KIDNEY_R / KIDNEY_TOTAL: tissue Kidney; for LIVER: tissue Liver; for A/G / ALP / ALT / AST / BUN / CRE / Ca / Cl / DBIL / GLC / IP / LDH / Na / PL / RALB / TBIL / TC / TG / TP / gamma-GTP: tissue Plasma

Question: `NC(N)=Nc1nc(CSCCC(N)=NS(N)(=O)=O)cs1` [FAMOTIDINE] was tested. Which Ht (tissue Blood, time 28 day) did it give?
Answer: Its Ht is 44.1%.

Question: And the Lym (tissue Blood, time 28 day)?
Answer: Its Lym is 84.8%.

Question: What about the MCH (tissue Blood, time 28 day) of the same molecule?
Answer: The MCH was 19.7 pg.

Question: What about the MCHC (tissue Blood, time 28 day) of the same molecule?
Answer: The MCHC was 35.6%.

Question: What about the MCV (tissue Blood, time 28 day) of the same molecule?
Answer: Its MCV is 55.4 fL.

Question: And the Mono (tissue Blood, time 28 day)?
Answer: The Mono was 1.4%.

Question: What about the Neu (tissue Blood, time 28 day) of the same molecule?
Answer: The Neu was 11%.

Question: What about the PT (tissue Blood, time 28 day) of the same molecule?
Answer: The PT was 12.5 s.

Question: What about the Plat (tissue Blood, time 28 day) of the same molecule?
Answer: The Plat was 100.2 x10_4/uL.

Question: What about the RBC (tissue Blood, time 28 day) of the same molecule?
Answer: The RBC was 796.6 x10_4/ul.

Question: What about the Ret (tissue Blood, time 28 day) of the same molecule?
Answer: The Ret was 1.9%.

Question: What about the WBC (tissue Blood, time 28 day) of the same molecule?
Answer: The WBC was 114.1 x10_2/uL.

Question: What about the KIDNEY_L (time 7 day) of the same molecule?
Answer: Its KIDNEY_L is 1.2 g.

Question: What about the KIDNEY_R (time 7 day) of the same molecule?
Answer: The KIDNEY_R was 1.2 g.

Question: What about the KIDNEY_TOTAL (time 7 day) of the same molecule?
Answer: Its KIDNEY_TOTAL is 2.4 g.

Question: What about the KIDNEY_L (time 14 day) of the same molecule?
Answer: The KIDNEY_L was 1.3 g.

Question: What about the KIDNEY_R (time 14 day) of the same molecule?
Answer: Its KIDNEY_R is 1.3 g.

Question: What about the KIDNEY_TOTAL (time 14 day) of the same molecule?
Answer: Its KIDNEY_TOTAL is 2.6 g.

Question: And the KIDNEY_L (time 28 day)?
Answer: Its KIDNEY_L is 1.3 g.

Question: And the KIDNEY_R (time 28 day)?
Answer: The KIDNEY_R was 1.3 g.

Question: What about the KIDNEY_TOTAL (time 28 day) of the same molecule?
Answer: The KIDNEY_TOTAL was 2.7 g.

Question: And the LIVER (time 7 day)?
Answer: The LIVER was 12.2 g.

Question: And the LIVER (time 14 day)?
Answer: The LIVER was 14 g.

Question: What about the LIVER (time 28 day) of the same molecule?
Answer: Its LIVER is 14.6 g.

Question: And the A/G (time 7 day)?
Answer: The A/G was 1.5.

Question: And the ALP (time 7 day)?
Answer: The ALP was 987.2 IU/L.

Question: What about the ALT (time 7 day) of the same molecule?
Answer: Its ALT is 36.6 IU/L.

Question: What about the AST (time 7 day) of the same molecule?
Answer: Its AST is 69.8 IU/L.

Question: And the BUN (time 7 day)?
Answer: The BUN was 14.6 mg/dL.

Question: And the CRE (time 7 day)?
Answer: The CRE was 0.4 mg/dL.

Question: And the Ca (time 7 day)?
Answer: Its Ca is 10.8 mg/dL.

Question: What about the Cl (time 7 day) of the same molecule?
Answer: The Cl was 103.6 meq/L.

Question: What about the DBIL (time 7 day) of the same molecule?
Answer: Its DBIL is 0.088 mg/dL.

Question: And the GLC (time 7 day)?
Answer: Its GLC is 183.6 mg/dL.

Question: What about the IP (time 7 day) of the same molecule?
Answer: The IP was 7.3 mg/dL.

Question: What about the LDH (time 7 day) of the same molecule?
Answer: The LDH was 184 IU/L.

Question: And the Na (time 7 day)?
Answer: Its Na is 140.8 meq/L.

Question: And the PL (time 7 day)?
Answer: Its PL is 147.6 mg/dL.

Question: What about the RALB (time 7 day) of the same molecule?
Answer: The RALB was 3.4 g/dL.

Question: What about the TBIL (time 7 day) of the same molecule?
Answer: Its TBIL is 0.1 mg/dL.

Question: And the TC (time 7 day)?
Answer: Its TC is 79 mg/dL.

Question: And the TG (time 7 day)?
Answer: The TG was 69.4 mg/dL.

Question: And the TP (time 7 day)?
Answer: The TP was 5.6 g/dL.

Question: What about the gamma-GTP (time 7 day) of the same molecule?
Answer: The gamma-GTP was 1 IU/L.

Question: And the A/G (time 14 day)?
Answer: The A/G was 1.5.

Question: What about the ALP (time 14 day) of the same molecule?
Answer: Its ALP is 838 IU/L.

Question: What about the ALT (time 14 day) of the same molecule?
Answer: The ALT was 36.6 IU/L.

Question: And the AST (time 14 day)?
Answer: The AST was 64.6 IU/L.

Question: What about the BUN (time 14 day) of the same molecule?
Answer: The BUN was 16.4 mg/dL.

Question: What about the CRE (time 14 day) of the same molecule?
Answer: Its CRE is 0.5 mg/dL.

Question: What about the Ca (time 14 day) of the same molecule?
Answer: Its Ca is 10.8 mg/dL.

Question: And the Cl (time 14 day)?
Answer: Its Cl is 103.4 meq/L.

Question: And the DBIL (time 14 day)?
Answer: The DBIL was 0.078 mg/dL.

Question: What about the GLC (time 14 day) of the same molecule?
Answer: Its GLC is 196.6 mg/dL.

Question: What about the IP (time 14 day) of the same molecule?
Answer: The IP was 7.4 mg/dL.

Question: What about the LDH (time 14 day) of the same molecule?
Answer: Its LDH is 162 IU/L.

Question: And the Na (time 14 day)?
Answer: The Na was 140.6 meq/L.

Question: What about the PL (time 14 day) of the same molecule?
Answer: The PL was 134.8 mg/dL.

Question: What about the RALB (time 14 day) of the same molecule?
Answer: The RALB was 3.6 g/dL.

Question: What about the TBIL (time 14 day) of the same molecule?
Answer: Its TBIL is 0.1 mg/dL.

Question: And the TC (time 14 day)?
Answer: The TC was 72.4 mg/dL.

Question: And the TG (time 14 day)?
Answer: The TG was 66.8 mg/dL.

Question: And the TP (time 14 day)?
Answer: Its TP is 5.9 g/dL.

Question: What about the gamma-GTP (time 14 day) of the same molecule?
Answer: Its gamma-GTP is 1.6 IU/L.

Question: What about the A/G (time 28 day) of the same molecule?
Answer: Its A/G is 1.3.

Question: And the ALP (time 28 day)?
Answer: The ALP was 722.6 IU/L.

Question: What about the ALT (time 28 day) of the same molecule?
Answer: Its ALT is 36.2 IU/L.

Question: And the AST (time 28 day)?
Answer: The AST was 62.4 IU/L.

Question: And the BUN (time 28 day)?
Answer: Its BUN is 17.4 mg/dL.

Question: What about the CRE (time 28 day) of the same molecule?
Answer: The CRE was 0.6 mg/dL.

Question: What about the Ca (time 28 day) of the same molecule?
Answer: Its Ca is 10.3 mg/dL.

Question: And the Cl (time 28 day)?
Answer: The Cl was 102.8 meq/L.

Question: And the DBIL (time 28 day)?
Answer: The DBIL was 0.076 mg/dL.

Question: What about the GLC (time 28 day) of the same molecule?
Answer: The GLC was 220 mg/dL.

Question: What about the IP (time 28 day) of the same molecule?
Answer: Its IP is 7 mg/dL.

Question: What about the LDH (time 28 day) of the same molecule?
Answer: The LDH was 132.6 IU/L.

Question: And the Na (time 28 day)?
Answer: The Na was 141.6 meq/L.

Question: What about the PL (time 28 day) of the same molecule?
Answer: Its PL is 121.2 mg/dL.

Question: What about the RALB (time 28 day) of the same molecule?
Answer: Its RALB is 3.4 g/dL.

Question: And the TBIL (time 28 day)?
Answer: Its TBIL is 0.1 mg/dL.

Question: And the TC (time 28 day)?
Answer: The TC was 62.4 mg/dL.

Question: And the TG (time 28 day)?
Answer: The TG was 72.2 mg/dL.

Question: And the TP (time 28 day)?
Answer: The TP was 6 g/dL.

Question: And the gamma-GTP (time 28 day)?
Answer: The gamma-GTP was 1.4 IU/L.
